Measurements from paper PMC9786170, “The Pharmacological Potential of Novel Melittin Variants from the Honeybee and Solitary Bees against Inflammation and Cancer” (Toxins, 2022).
“Also recorded” adds a separate entry of the source.

How the values were obtained:
[1] = test system: HEK293T cells; test: Cell viability assay (WST-8/Orangu formazan) in HEK293T cells; format: cell-based, human; conditions: 25 µg/mL, 24 h, WST-8 formazan absorbance, n = 4
Protocol: (§1) Figure 1 Toxicity characterization of cells treated with melittin peptides. (A,B) For the viability assay, RAW264.7 (A) or HEK293T (B) cells were treated with bee venom compounds in the indicated concentrations for 24 h. Cells were incubated with WST-8 and the formed formazan was detected by absorbance measurements. (C) For the proliferation assay, HMEC-1 cells were grown in low density and treated after 24 h with the indicated peptide (25 µg/mL) for 72 h. Cells were stained with crystal violet solution. The amount of DNA-bound crystal violet was detected by absorbance measurements. (D) The number of sub-diploidic cells was determined by staining with propidium iodide (PI) and quantified to assess apoptosis of HUVECs. Data are expressed as mean ± SEM. (A) n = 3, (B) n = 4, (C) n = 2–3, (D) n = 2. * p ≤ 0.05 versus control.
For assessing the cytotoxicity of all peptides, various cell types and assays were utilized. […] After incubation, absorbance was measured at a wavelength of 450 nm with a reference at 650 nm at an EnSpire 2300 Multimode Plate Reader (Perkin Elmer, Lübeck, Germany). To calculate cell viability, the absorbance of vehicle-treated cells was set to 100%, and the melittin derivates-treated samples were correlated to them.

[2] = test system: HMEC-1 cells; test: Proliferation assay (crystal violet) in HMEC-1 cells; format: cell-based, human; conditions: HMEC-1, 25 µg/mL, 72 h, n = 2–3
Protocol: as §1
HMECs (2000 cells/well) were seeded into collagen-coated 96-well plates and grown for 24 h. Then, they were treated with melittin peptides. […] Absorbance was measured at 590 nm using a plate reader (Infinite F200Pro, Tecan, Männedorf, Switzerland). The proliferation percentage was calculated by normalizing to the untreated control (24 h) and compared to the DMSO control (0.03%) of 72 h incubation. […]

[3] = test system: RAW264.7 cells; test: NO inhibition assay (LPS-stimulated, Griess); format: cell-based, murine; conditions: RAW264.7, peptide 30 min, then 100 ng/mL LPS 24 h
Protocol: Figure 4 Influence of melittin derivates on inflammation-associated cell functions. (A,B) For the NO induction assay (A), RAW264.7 cells were treated with melittin peptides in the indicated concentrations for 24 h. For the NO inhibition assay (B), RAW264.7 cells were pretreated with melittin peptides in the indicated concentrations for 30 min and then stimulated with 100 ng/mL LPS for 24 h. NO was detected in the supernatant using the Griess method. […] THP-1 cell adhesion under static conditions. HUVECs were grown to confluence, preincubated with bee venoms for 30 min, and activated with TNF (10 ng/mL) for 24 h. For the leukocyte adhesion assay, untreated THP-1 cells were stained with CellTracker Green and were allowed to adhere to the treated HUVECs for 5 min. The adhesion of leukocytes onto Ecs was quantified by fluorescence measurements for all cell adhesion experiments. Data are expressed as means ± SEM, (A,B) n = 3, (C) n = 2. * p ≤ 0.05 vs. TNF (positive) control.
2 × 10^4 RAW264.7 macrophages/well were plated in a 96-well plate and cultured for 24 h at 37 °C. To investigate if the melittin peptides induce nitrogen oxide (NO) synthesis, the melittin peptides, control (DMSO), and positive control (100 ng/mL lipopolysaccharide (LPS)) were added. To evaluate the effect of melittin peptides on inhibiting NO synthesis, the cells were pre-incubated with peptides or control (DMSO) for 30 min before 100 ng/mL LPS were added. After 24 h supernatants were collected and stored at −80 °C.
NO was determined with the Griess method. Briefly, for the standard curve, different concentrations of sodium nitrite (0–50 µM) were prepared in the medium. A total of 80 µL cell supernatant or standard sample were added to a 96-well microplate and subsequently, 20 µL sulfanilamide solution (120 mg sulfanilamide in 30 mL 1 N hydrochloric acid) and 20 µL naphthylenediamine solution (180 mg N-(1-naphthyl)ethylenediamine dihydrochloride in 30 mL water) were added. After 15 min of incubation, the absorbance (540 nm) was measured with the EnSpire Plate Reader (PerkinElmer, Waltham, MA, USA). For the induction assay, the NO levels of the melittin peptides-treated samples were related to the DMSO-treated sample. For the inhibition assay, the NO levels of the melittin peptides-treated cells were correlated with the LPS-treated samples.

[4] = test system: MDA-MB-231 cells; test: Proliferation assay (crystal violet) in MDA-MB-231 cells; format: cell-based, human; conditions: n = 2; for anti-proliferative activity, 72 h: MDA-MB-231, 25 µg/mL, crystal violet
Protocol: Figure 5 Anti-proliferative and apoptotic effect of melittin derivates on the triple-negative breast cancer cell line MDA-MB-231. (A) For the proliferation assay, cells were grown in low density and were treated after 24 h with melittin peptides at a concentration of 25 µg/mL for 72 h. Cells were stained with crystal violet solution. The amount of DNA-bound crystal violet was detected by absorbance measurements. (B) Melt3, 4, and Xac4, which are non-toxic to healthy cells, were further used to test effects on proliferation at 24 h (left) and 48 h (right) at different concentrations. (C) The effects on apoptosis were detected by flow cytometry after 24 h (left), 48 h (middle), and 72 h (right) of treatment. The number of apoptotic cells was determined by staining with propidium iodide (PI). Data are expressed as mean ± SEM. n = 2, * p ≤ 0.05 versus control. Sts, staurosporin 1 µM.
HMECs (2000 cells/well) were seeded into collagen-coated 96-well plates and grown for 24 h. Then, they were treated with melittin peptides. Treated cells were cultured for 72 h, whereas untreated control cells, directly after 24 h, were fixed with a methanol-ethanol (2:1) solution and washed with PBS before they were stained using a crystal violet solution (20% methanol). Similarly, at the end of incubation time, cells treated with melittin peptides were fixed, stained, and unbound crystal violet was removed by washing with distilled water. Finally, cells were left to air dry, and DNA-bound crystal violet was dissolved using an acetic acid solution (20%, Sigma-Aldrich, Steinheim, Germany). Absorbance was measured at 590 nm using a plate reader (Infinite F200Pro, Tecan, Männedorf, Switzerland). The proliferation percentage was calculated by normalizing to the untreated control (24 h) and compared to the DMSO control (0.03%) of 72 h incubation. Similarly, MDA-MB-231 cells (6000 cells/well) were seeded into 96-well plates, and their proliferation ability under treatment conditions was tested as described above.

Row | Substance | cytotoxicity (cell viability) [1] | proliferation [2] | inhibition of LPS-induced NO synthesis ([3]; n = 3, listed as Melittin) | inhibition of LPS-induced NO synthesis ([3]; n = 3, listed as melittin) | anti-proliferative activity, 72 h [4] | inhibition of LPS-induced NO synthesis ([3]; n = 3) | proliferation at 24 h and 48 h, concentration range ([4]; MDA-MB-231, 24 h and 48 h, different concentrations, Melt4 effect at 10 and 25 µg/mL)
1 | melittin [Melt, reference compound] | showed cytotoxicity | proliferation was hindered | prevent the LPS-induced NO release | prevented LPS-induced NO synthesis in a concentration-dependent manner | exhibited anti-proliferative activity |  | 
2 | xylopin [Xac4] | showed cytotoxicity | proliferation was augmented |  |  | exhibited anti-proliferative activity; also recorded: anti-proliferative effects on breast cancer cells | prevented LPS-induced NO synthesis in a concentration-dependent manner; also recorded: reducing the inflammation-associated interaction of endothelial cells with leukocytes and NO synthesis | trend of decreased proliferation
